One assay concerns Jurkat cells. Kind of assay: Apoptosis and Puma induction by recombinant gp120 protein in Jurkat cells. It counts as cell-based. The conditions noted are these: four days, gp120 500 ng/ml, cyclic pifithrin-α 10 µM, Fig. 8E. The method, then: Figure 8D. Induction of Puma by recombinant gp120 protein in Jurkat cells (as in figure 8B).
Figure 8E. Effect of cyclic pifithrin-alpha. Jurkat cells were treated for four days with gp120 protein (500 ng/ml) and or cyclic pifithrin-α (10 µM), followed by determination of Puma expression.
(§1) HeLa cells stably transfected with the Env gene of HIV-1 LAI (HeLa Env) and HeLa cells transfected with CD4 (HeLa CD4) were cocultured at a 1:1 ratio (6), in DMEM medium supplemented with 10 % FCS, L-glutamine, in the absence or presence of roscovitin (1 µM), rapamycin (1 µM, Sigma), cyclic pifithrin-α (10 µM), MG132 (5 µM, Calbiochem), the NF-κB-inhibitory peptide SN50, or its negative control SN50M (20 µM, Biomol). HeLa/U937 cell co-cultures were performed at different ratios (6). U937 or Jurkat cells were cultured with recombinant gp120 protein (500 ng/ml).

The next assay has as its system U937 cells. Briefly: Induction of Puma in U937 cells co-cultured with HeLa Env cells. It counts as cell-based. As to conditions: 36 hours, Fig. 8A. Also on record: dose or concentration left out as unconfirmed. The method, then:
Figure 8A. Induction of Puma in U937 cells co-cultured with HeLa Env cells. U937 cells were mixed at different ratios with HeLa Env cells, just before the preparation of cell lysates for immunoblot detection of Puma (Control) or coculture for 36 hours, in the absence or presence of the p53 inhibitor cyclic pifithrin α […]. The percentage of dead U937 cells was determined by trypan blue exclusion.
as §1
Protein samples were prepared from HeLa Env and HeLa CD4 single cells mixed at a 1:1 ratio in lysis buffer (single cells control) or from HeLa Env/CD4 syncytia. Proteins samples from HeLa Env and U937 mixed at different ratios were also prepared and subjected to immunoblot analysis. […]

Regarding `Cc1ccc(-c2cn3c4c(sc3n2)CCCC4)cc1` [pifithrin-α, cyclic pifithrin-α], the “gp120-induced apoptosis and Puma expression” value with Jurkat cells was “strongly inhibited”. The “upregulation of Puma” value in the assay on U937 cells is “not inhibited”.

The record behind these values is patent EP1542016A1, “PUMA, phosphorylated p53 and p38 map kinase as markers for HIV-1-induced apoptosis in circulating T cells of infected patient” (Institut Gustave Roussy, priority 2003, dated 2005).
